# ChEMBL document CHEMBL2034869, “Mapping pilicide anti-virulence effect in Escherichia coli, a comprehensive structure-activity study” (Bioorg Med Chem, 2012)
# pEC50: −log10 of the molar value.
# System: Escherichia coli
# Test: Inhibition of type-1 pili-dependent biofilm formation in Escherichia coli […]
# Type: functional, organism-based
# Conditions: not given; call rule not given here
row,EC50,SMILES
1,Not Active,COc1ccc2c(Cc3cc(=O)n4c(c3-c3cccs3)SC[C@H]4C(=O)O)cc(=O)oc2c1
2,Not Active,CC(C)c1c(Cn2nnc3ccccc32)cc(=O)n2c1SC[C@H]2C(=O)[O-].[Li+]
3,Not Active,O=C([O-])[C@@H]1CSc2c(C3CC3)c(Cn3ccc4ccccc43)cc(=O)n21.[Li+]
4,Not Active,O=C([O-])[C@@H]1CSc2c(-c3cccnc3)c(Cn3nnc4ccccc43)cc(=O)n21.[Li+]
5,Not Active,O=C([O-])[C@@H]1CSc2c(C3CC3)c(Cc3csc4ccccc34)cc(=O)n21.[Li+]
6,Not Active,COc1c(Cc2csc3ccccc23)cc(=O)n2c1SC[C@H]2C(=O)[O-].[Li+]
7,Not Active,COc1ccc2c(Cc3cc(=O)n4c(c3-c3ccccc3)SC[C@H]4C(=O)O)cc(=O)oc2c1
8,Not Active,O=C([O-])[C@@H]1CSc2c(-c3cccnc3)c(Cc3ccc4c(c3)OCO4)cc(=O)n21.[Li+]
9,Not Active,COc1c(Cc2ccc3c(c2)OCO3)cc(=O)n2c1SC[C@H]2C(=O)O
10,Not Active,COc1c(Cc2cccc3ccccc23)cc(=O)n2c1SC[C@H]2C(=O)[O-].[Li+]
11,Not Active,COc1ccc2c(Cc3cc(=O)n4c(c3C3CC3)SC[C@H]4C(=O)O)cc(=O)oc2c1
12,Not Active,Cc1cccc(OCc2cc(=O)n3c(c2-c2cccnc2)SC[C@H]3C(=O)[O-])c1C.[Li+]
13,Not Active,O=C([O-])[C@@H]1CSc2c(C3CC3)c(Cn3nnc4ccccc43)cc(=O)n21.[Li+]

# Same assay, conditions: Escherichia coli, UT189; read-out: EC50
row,pEC50,SMILES
1,3.93,O=C(O)[C@@H]1COc2c(-c3cccs3)c(Cc3cccc4ccccc34)cc(=O)n21
2,4.41,O=C(O)[C@@H]1CSc2c(C3CC3)c(COc3cccc(Oc4ccccc4)c3)cc(=O)n21
3,4.68,O=C(O)[C@@H]1CSc2c(-c3ccc4c(c3)OCO4)c(COc3cccc4ccccc34)cc(=O)n21
4,4.72,O=C(O)[C@@H]1COc2c(-c3ccc4c(c3)OCO4)c(COc3cccc4ccccc34)cc(=O)n21
5,4.92,O=C(O)[C@@H]1CSc2c(-c3c[nH]c4ccccc34)c(COc3cccc4ccccc34)cc(=O)n21
6,5.68,Cn1cc(-c2c(COc3cccc(Oc4ccccc4)c3)cc(=O)n3c2SC[C@H]3C(=O)O)c2ccccc21
7,5.30,Cc1cccc(-c2sc3c(-c4ccc5c(c4)OCO5)c(COc4cccc5ccccc45)c(CN4CCOCC4)c(=O)n3c2C(=O)O)c1
8,5.60,CO[C@H]1Sc2c(-c3cn(C)c4ccccc34)c(COc3cccc4ccccc34)cc(=O)n2[C@@H]1C(=O)O
9,4.13,Cc1cccc(CCc2cc(=O)n3c(c2-c2c[nH]c4ccccc24)SC[C@H]3C(=O)O)c1
10,3.60,O=C(O)[C@@H]1CSc2c(C3CC3)c(Cc3cccc4ccccc34)cc(=O)n21
11,6.40,O=C(O)[C@@H]1[C@@H](c2ccccc2)Sc2c(-c3cccs3)c(Cc3cccc4ccccc34)cc(=O)n21
12,5.05,Cn1cc(-c2c(COc3cccc4ccccc34)cc(=O)n3c2SC[C@H]3C(=O)NS(C)(=O)=O)c2ccccc21
13,4.41,O=C(O)[C@@H]1CSc2c(-c3cccs3)c(Cc3cccc4ccccc34)cc(=O)n21
14,4.06,O=C(O)[C@@H]1CSc2c(-c3cccs3)c(Cc3cccc4ccccc34)c(CN3CCOCC3)c(=O)n21
15,4.80,Cn1cc(-c2c(COc3cccc4ccccc34)c(CO)c(=O)n3c2SC[C@H]3C(=O)O)c2ccccc21
16,4.52,CO[C@H]1Sc2c(-c3ccc4c(c3)OCO4)c(COc3cccc4ccccc34)cc(=O)n2[C@@H]1C(=O)O
17,5.85,O=C(O)[C@@H]1CSc2c(C3CC3)c(Cc3cccc(COc4cccc5ccccc45)c3)cc(=O)n21
18,4.57,Cc1cccc(OCc2cc(=O)n3c(c2-c2ccc4c(c2)OCO4)SC[C@H]3C(=O)O)c1C
19,5.92,O=C(O)[C@@H]1[C@@H](c2ccccc2)Sc2c(-c3ccc4c(c3)OCO4)c(COc3cccc4ccccc34)cc(=O)n21
20,5.72,O=C(O)[C@@H]1CSc2c(-c3cccc(C(F)(F)F)c3)c(Cc3cccc(COc4cccc5ccccc45)c3)cc(=O)n21
21,4.07,Cc1cccc(-c2sc3c(-c4cn(C)c5ccccc45)c(COc4cccc5ccccc45)cc(=O)n3c2C(=O)O)c1
22,6.00,Cn1cc(-c2c(COc3cccc4ccccc34)cc(=O)n3c2S[C@H](c2ccccc2)[C@H]3C(=O)O)c2ccccc21

row,pEC50,SMILES
1,4.04,CO[C@H]1Sc2c(-c3cccs3)c(Cc3cccc4ccccc34)cc(=O)n2[C@@H]1C(=O)O
2,4.41,O=C(O)[C@@H]1CSc2c(-c3c[nH]c4ccccc34)c(Cc3ccc4c(c3)OCO4)cc(=O)n21
3,4.85,O=C(O)[C@@H]1CSc2c(-c3cccs3)c(COc3cccc4ccccc34)cc(=O)n21
4,4.51,O=C(O)[C@@H]1CSc2c(-c3c[nH]c4ccccc34)c(Cc3cccc4ccccc34)cc(=O)n21
5,4.52,O=C(O)[C@@H]1CSc2c(-c3ccc4c(c3)OCO4)c(COc3cccc4ccccc34)c(CO)c(=O)n21
6,5.37,O=C(O)[C@@H]1CSc2c(-c3cccc(C(F)(F)F)c3)c(COc3cccc(Oc4ccccc4)c3)cc(=O)n21
7,4.00,Cc1cccc(CCc2cc(=O)n3c(c2C(C)C)SC[C@H]3C(=O)O)c1
8,5.52,O=C(O)[C@@H]1CSc2c(-c3cccc(C(F)(F)F)c3)c(Cc3c4ccccc4cc4ccccc34)cc(=O)n21
9,4.40,O=C(O)[C@@H]1CSc2c(-c3ccccc3)c(Cc3cccc4ccccc34)cc(=O)n21
10,5.96,Cn1cc(-c2c(Cc3cccc(COc4cccc5ccccc45)c3)cc(=O)n3c2SC[C@H]3C(=O)O)c2ccccc21
11,4.74,Cn1cc(-c2c(COc3cccc4ccccc34)c(CN3CCOCC3)c(=O)n3c2SC[C@H]3C(=O)O)c2ccccc21
12,5.00,Cn1cc(-c2c(COc3cccc4ccccc34)cc(=O)n3c2SC[C@H]3C(=O)O)c2ccccc21
13,5.30,Cc1cccc(-c2sc3c(-c4cn(C)c5ccccc45)c(COc4cccc5ccccc45)c(CN4CCOCC4)c(=O)n3c2C(=O)O)c1
14,4.49,O=C(O)[C@@H]1CSc2c(-c3ccc4c(c3)OCO4)c(COc3cccc4ccccc34)c(CN3CCOCC3)c(=O)n21
15,4.40,Cc1cccc(CCc2cc(=O)n3c(c2-c2ccccc2)SC[C@H]3C(=O)O)c1
16,4.44,Cc1cccc(OCc2cc(=O)n3c(c2-c2ccccc2)SC[C@H]3C(=O)O)c1C
17,4.74,Cn1cc(-c2c(COc3cccc4ccccc34)cc(=O)n3c2OC[C@H]3C(=O)O)c2ccccc21
18,4.70,Cc1cccc(-c2sc3c(-c4ccc5c(c4)OCO5)c(COc4cccc5ccccc45)cc(=O)n3c2C(=O)O)c1
19,4.17,O=C(O)[C@@H]1CSc2c(-c3ccc4c(c3)OCO4)c(Cc3csc4ccccc34)cc(=O)n21
20,4.00,CC(C)c1c(Cc2cccc3ccccc23)cc(=O)n2c1SC[C@H]2C(=O)O
21,3.60,O=C(O)[C@@H]1CSc2c(-c3cccs3)c(Cc3cccc4ccccc34)c(CO)c(=O)n21
